Format in all cases: biochemical
Test [1] concerns the target T1, monoacylglycerol lipase (MAGL) (Macaca fascicularis, UniProt A0A2K5V664).
T1 sequence (A0A2K5V664 1-352): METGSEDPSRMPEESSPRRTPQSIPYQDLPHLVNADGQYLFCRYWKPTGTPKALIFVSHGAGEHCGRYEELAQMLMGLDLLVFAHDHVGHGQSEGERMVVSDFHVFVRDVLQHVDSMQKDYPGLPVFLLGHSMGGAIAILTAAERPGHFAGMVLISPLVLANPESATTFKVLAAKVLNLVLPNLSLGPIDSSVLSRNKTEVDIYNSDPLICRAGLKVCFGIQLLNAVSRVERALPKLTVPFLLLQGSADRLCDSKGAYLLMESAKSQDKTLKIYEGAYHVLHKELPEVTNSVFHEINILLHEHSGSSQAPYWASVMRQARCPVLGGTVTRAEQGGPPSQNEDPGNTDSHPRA
Description: enzymatic inhibition assay with cynomolgus monkey MAGL protein.

The target in test [2] is T2, monoacylglycerol lipase (MAGL) (Mus musculus, UniProt O35678).
T2 construct: gene Mgll
T2 sequence (O35678 1-303): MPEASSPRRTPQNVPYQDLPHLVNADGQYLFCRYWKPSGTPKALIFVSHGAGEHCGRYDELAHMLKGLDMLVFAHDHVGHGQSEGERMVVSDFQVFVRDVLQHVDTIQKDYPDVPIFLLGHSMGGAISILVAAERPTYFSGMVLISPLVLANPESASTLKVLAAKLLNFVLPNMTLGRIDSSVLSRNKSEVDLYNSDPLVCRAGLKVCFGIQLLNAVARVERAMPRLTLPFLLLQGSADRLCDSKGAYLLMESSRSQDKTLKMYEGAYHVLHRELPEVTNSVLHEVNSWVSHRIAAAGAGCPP
Description: enzymatic inhibition assay with mouse MAGL protein; supported by autoradiography and PET in wild-type vs MAGL knockout mice.

In test [3] the target is T3, monoacylglycerol lipase (MAGL) (Homo sapiens, UniProt Q99685).
T3 construct: gene MGLL
T3 sequence (Q99685 1-303): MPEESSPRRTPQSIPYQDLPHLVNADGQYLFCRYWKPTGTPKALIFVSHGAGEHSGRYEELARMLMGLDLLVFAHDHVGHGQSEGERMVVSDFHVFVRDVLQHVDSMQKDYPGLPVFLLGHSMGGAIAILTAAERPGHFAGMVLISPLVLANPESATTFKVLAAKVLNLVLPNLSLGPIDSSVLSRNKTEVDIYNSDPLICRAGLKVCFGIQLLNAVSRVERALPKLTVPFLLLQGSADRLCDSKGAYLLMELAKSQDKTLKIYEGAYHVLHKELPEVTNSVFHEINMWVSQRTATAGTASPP
Kind of test: enzymatic inhibition assay with human MAGL protein.

Among the data in publication PMC11839854, “Exploration of (R)-[^11C]YH168 as a PET tracer for imaging monoacylglycerol lipase in the brain: from mice to non-human primates” (European Journal of Nuclear Medicine and Molecular Imaging, 2024) are IC50 values, retold here.

For `Cc1cccc(-c2ccc(N3C[C@H](N4CCN(C(=O)c5ccco5)CC4)CC3=O)cc2)c1` [(R)-YH168], the IC50 in test [1] is 2.7 nM; in test [2] it was 3.8 nM; in test [3], 4 nM.

Usually IC50 stands for the concentration at which inhibition is half-maximal.
